From ChEMBL document CHEMBL1141163, “QSAR studies of copper azamacrocycles and thiosemicarbazones: MM3 parameter development and prediction of biological properties” (J Med Chem, 2005)

Test: Partition coefficient (logP)
Assay type: physicochemical
Details: octanol/water

logP: -2.29
Substance: Copper(II) Complex
